Counter-ions that a name gives are not always drawn.
Columns and labels:
IMPDH human type II = IMPDH human type II (Homo sapiens, UniProt P12268); details: general statement; disclosed in the Compound 1 patents; cited from earlier work
[1] = Hygroscopicity: water/weight uptake at 90% relative humidity; assay type: physicochemical; details: for water uptake (weight uptake): at 90% relative humidity (RH) at 25° C.; for hygroscopicity (in words): judged from uptake at 90% relative humidity
[2] = Maturation study of Form A1: slurry in solvent, excess solid analysed by XRPD; assay type: physicochemical; details: about 10 mg slurried in 500 μl solvent, shaken at 25-30° C. for 24 hrs
Experimental: X-ray powder diffraction patterns for the samples were acquired on a Bruker AXS/Siemens D5000 diffractometer using CuKα radiation (40 kV, 40 mA), ?-? goniometer, automatic divergence and receiving slits, a graphite secondary monochromator and a scintillation counter. The data were collected over an angular range of 2° to 42° 2? in continuous scan mode using a step size of 0.02° 2? and a step time of 1 second. Samples run under ambient conditions were prepared as flat plate specimens using powder as received without grinding. Approximately 25-50 mg of the sample was gently packed into 12 mm diameter, 0.5 mm deep cavities cut into polished, zero-background (510) silicon wafers (The Gem Dugout, 1652 Princeton Drive, Pennsylvania State College, PA 16803, USA). All specimens were run both stationary and rotated in their own plane during analysis. A further specimen was run using silicon powder as an internal standard to correct for any peak displacement. Samples run under non-ambient conditions were packed into a stainless steel cavity sample holder equipped with a Pt 100 thermocouple for temperature monitoring. Low temperature data were recorded using an Anton Paar TTK450 variable temperature camera attached to the Bruker AXS/Siemens D5000 diffractometer. […] The excess solid was removed by filtration and analysed by XRPD.

Row | water uptake (weight uptake) [1] | hygroscopicity (in words) [1] | Structure (SMILES) | also measured
1 |  |  | COc1cc(NC(=O)Nc2cccc(CNC(=O)O[C@H]3CCOC3)c2)ccc1-c1cnco1 [Compound 1, (S)-tetrahydrofuran-3-yl 3-(3-(3-methoxy-4-(oxazol-5-yl)phenyl)ureido)benzylcarbamate] | IMPDH inhibition (in words) (IMPDH human type II): potent IMPDH inhibitor
2 | less than 0.5% | non-hygroscopic | COc1cc(NC(=O)Nc2cccc(CNC(=O)O[C@H]3CCOC3)c2)ccc1-c1cnco1 [Form A1, (S)-tetrahydrofuran-3-yl 3-(3-(3-methoxy-4-(oxazol-5-yl)phenyl)ureido)benzylcarbamate] | XRPD patterns observed after maturation, all 31 solvents [2]: consistent with the pattern of Form A1
3 | 3% | moderately hygroscopic | COc1cc(NC(=O)Nc2cccc(CNC(=O)O[C@H]3CCOC3)c2)ccc1-c1cnco1 [Form C3, (S)-tetrahydrofuran-3-yl 3-(3-(3-methoxy-4-(oxazol-5-yl)phenyl)ureido)benzylcarbamate] | 
4 |  |  | COc1cc(NC(=O)Nc2cccc(CNC(=O)O[C@H]3CCOC3)c2)ccc1-c1cnco1 [Form E5 HCl salt, (S)-tetrahydrofuran-3-yl 3-(3-(3-methoxy-4-(oxazol-5-yl)phenyl)ureido)benzylcarbamate, HCl salt] | uptake ([1]; at 90% relative humidity): 22 % w/w; hygroscopicity (in words) ([1]; HCl salt): highly hygroscopic

— patent US7605270B2, “Polymorphic forms of (S).-tetrahydrofuran-3-yl-3-(3-(3-methoxy-4-(oxazol-5-yl) phenyl) ureido) benzylcarbamate” (Vertex Pharmaceuticals Incorporated, priority 2005, dated 2009)
